The record followed here is article PMC6062912, “The Evolutionary Conserved γ-Core Motif Influences the Anti-Candida Activity of the Penicillium chrysogenum Antifungal Protein PAF” (Frontiers in Microbiology, 2018).

Type in all cases: cell-based, Candida albicans
Experiment [1] relates to C. albicans. Conditions: 10 min exposure, mean ± SD, untreated control 1.8 ± 1.2%. The method, then:
(§1) To analyze changes in cell size and to assess kinetics of cell death of C. albicans upon antifungal treatment flow cytometry was applied. For both experiments, 10^4 cells mL^-1 was incubated in 0.05× PDB with the desired AMP concentration for different time points. The incubation was performed in 1.5 mL reaction tubes at 30°C under continuous shaking at 800 rpm in a Thermomixer Comfort (Eppendorf). After incubation, the cells were centrifuged at 4°C with 3,000 ×g for 3 min. For cell size determination, the supernatant was removed and the cells were resuspended and fixed in PBS containing 3.7% (v/v) formaldehyde before changes in cell size were measured by plotting SSC against FSC. C. albicans that were incubated at 95°C for 120 min served as controls. Microscopic control-images were taken with a fluorescence microscope (Axioplan, Zeiss), equipped with a camera (Axiocam 503 mono, Zeiss) and excitation/emission filters (365/420 nm for blue fluorescence and 546/590 or 565/620 nm for red fluorescence, Zeiss). Image acquisition was performed with ZEN 2 microscope software (Zeiss, blue edition) and the cell area was measured with ImageJ 1.52d software ([Schindelin et al., 2012]).
For dead-cell staining, prior to fixation, the cells were incubated in the dark for 30 min at 4°C with 100 μL PBS containing 0.1 μL LIVE/DEAD^TM Fixable Far Red Dead Cell Stain (Thermo Fisher Scientific). The cells were then washed once in PBS and fixed in PBS containing 3.7% formaldehyde. Ethanol-inactivated dead C. albicans served as a positive staining control. The samples were then analyzed by FACS (FACSVerse Flow Cytometer, BD Biosciences), equipped with BD FACSuite software (v1.0.6.5230, BD Biosciences). Dead cells were detected at Excitation/Emission wavelength of 650/665 nm. Stained, live, and dead Candida cells were used as controls to discriminate populations and to set the gates.
To elucidate the AMPs candidacidal activities at an early stage and to compare their time and dose-dependent cell killing in more detail, fluorescence activated cell sorting (FACS) analysis with dead-cell staining was applied. To this end, C. albicans was exposed to 1× and 2× MIC of the respective AMPs for 10 min, stained with the dead-cell marker, and fixed with formaldehyde. With FACS analyses, 1.8 ± 1.2% dead cells were detected in the untreated control (Figure 3).

Experiment [2] concerns C. albicans. In words: Cell size reduction (FSC) by flow cytometry. Conditions: 2× MIC, mean ± SD. The method, then:
as §1
Cell shrinkage of C. albicans is a sign for cell death when exposed to AMPs ([Lee et al., 2017]). We therefore analyzed the changes in size of AMP-treated C. albicans cells by recording the FSC with flow cytometry. To this end, C. albicans cells were analyzed after 10 and 30 min of exposure to 1× MIC and 2× MIC of AMPs (Figure 5). Heat-killed and untreated C. albicans cells served as positive and negative controls, respectively (Supplementary Figure S8). […] Pγ^var and Pγ^opt caused a very prominent decrease in the FSC value compared to the untreated cell population when applied at 2× MIC. Pγ^var and Pγ^opt reduced the average cell size after a 10-min treatment by 28 ± 13 (P = 0.022) and 18 ± 10% (P = 0.041), respectively, and after 30 min the cell size was reduced by 48 ± 8 (P < 0.001) and 37 ± 12% (P = 0.007), respectively.
On the technique in general: Flow cytometry measures light scatter and fluorescence of single cells or particles in a stream.

The test system of experiment [3] is C. albicans. In words: ROS production, DCFH-DA fluorometric assay. As to conditions: for ROS signal higher compared to Pγ: 60 min. The method, then: For the detection of ROS generation in C. albicans a dichloro-dihydro-fluorescein diacetate (DCFH-DA, Sigma-Aldrich)-based fluorometric assay was applied, adapted from [Han et al. (2016)]. Cells from an overnight culture of C. albicans, grown on YPD agar, were suspended in 0.05× PDB (Sigma-Aldrich) and the cell number was adjusted to 10^7 cells mL^-1. DCFH-DA stock solution (100 mM in DMSO) was added to the cell suspension to give a final concentration of 100 μM. This cell suspension was pre-incubated for 30 min at 30°C protected from light. Serial dilutions of the test compounds were prepared in 0.05× PDB (Sigma-Aldrich) in 96-well microtiter plates (Nunclon Delta, Thermo Fisher Scientific) in a volume of 100 μL per well. H2O2 served as a positive control for ROS induction. After pre-incubation, the DCFH-DA loaded cells were added to the test compounds (100 μL per well) to give a final volume of 200 μL in each well and the 96-well plate was placed in a multi-mode microplate reader (FLUOstar Omega, BMG Labtech), set to 30°C incubation temperature. The fluorescence signal was recorded every 5 min over a time course of 4 h at excitation and emission wavelengths of 485 and 520 nm, respectively. Measurements were prepared in duplicates and assays were performed at least three times.
Since ROS production is an early marker for programmed cell death, we were also interested whether the investigated AMPs induce ROS in C. albicans. Therefore, C. albicans cells were loaded with DCFH-DA, which is converted intracellularly to the highly fluorescent DCF when oxidized in the presence of ROS ([Chen et al., 2010]). During exposure of the cells to 0–20 μM AMPs the DCF signal intensities were recorded in RFU every 5 min over a time-course of 4 h. The background RFU of 6,757 ± 117 was detected in C. albicans cells that were not exposed to AMPs, but loaded with DCFH-DA, diluted in 0.05× PDB (0.1% DMSO final concentration). The RFU value remained constant over the time of measurement. For all AMPs, we detected a time- and dose-dependent increase of ROS (Supplementary Figure S9) and ROS production was prevented by the addition of 1 mM of the antioxidant ascorbic acid to the highest concentration (20 μM) of each AMP (Supplementary Figure S10).

Molecules are shown by their SMILES. Like-named read-outs stand apart in the source and are kept apart here. Residues, ends and D or L forms follow the SMILES beside them.

`CC(=O)N[C@@H](CCCCN)C(=O)N[C@@H](Cc1ccc(O)cc1)C(=O)N[C@H](C(=O)NCC(=O)N[C@@H](CCCCN)C(=O)N[C@@H](CS)C(=O)N[C@@H](CCCCN)C(=O)N[C@H](C(=O)N[C@@H](CCCCN)C(=O)N[C@@H](CCCCN)C(=O)N[C@@H](CC(N)=O)C(=O)N[C@@H](CCCCN)C(=O)N[C@@H](CS)C(=O)N[C@@H](CCCCN)C(N)=O)[C@@H](C)O)[C@@H](C)O` [Pγ^opt] (Ac-KYTGKCKTKKNKCK-NH2): the “dead cells (cells killed), FACS dead-cell staining” value in the experiment on C. albicans [1] (1× MIC) is 11.7 ± 0.3%; in the experiment with C. albicans [1] (2× MIC) it was 27.4 ± 1.3%. The “cell size reduction (change in FSC vs untreated cells)” value in the experiment with C. albicans [2] (10 min) is 18 ± 10%; with C. albicans [2] (30 min), 37 ± 12%. Moreover, in the experiment on C. albicans [3] (1.3 μM, 4 h), the “ROS signal above the background” value was found to be 36%. For the same compound, the “fluorescence signal above the background (ROS)” value in the experiment with C. albicans [3] (20 μM, 30 min) was 31%. In addition, the “ROS signal higher compared to Pγ” value in the experiment on C. albicans [3] (20 μM) is on record as “+85%”. Also, the “ROS signal above the level induced by Pγ” value in the experiment with C. albicans [3] (20 μM, 4 h) is recorded as 446%.
For the compound `CC(=O)N[C@@H](CCCCN)C(=O)N[C@@H](Cc1ccc(O)cc1)C(=O)N[C@H](C(=O)NCC(=O)N[C@@H](CCCCN)C(=O)N[C@@H](CS)C(=O)N[C@@H](Cc1ccc(O)cc1)C(=O)N[C@@H](CCCCN)C(=O)N[C@@H](CCCCN)C(=O)N[C@@H](CCCCN)C(=O)N[C@@H](CC(N)=O)C(=O)N[C@@H](CCC(=O)O)C(=O)N[C@@H](CS)C(=O)N[C@@H](CCCCN)C(N)=O)[C@@H](C)O` [Pγ^var] (Ac-KYTGKCYKKKNECK-NH2), the “dead cells (cells killed), FACS dead-cell staining” value in the experiment with C. albicans [1] (1× MIC) is 13.2 ± 3.2%; in the experiment with C. albicans [1] (2× MIC), 27.1 ± 5.6%. In addition, the “cell size reduction (change in FSC vs untreated cells)” value with C. albicans [2] (10 min) was 28 ± 13%; with C. albicans [2] (30 min), 48 ± 8%. For the same compound, the “ROS signal higher compared to Pγ” value with C. albicans [3] (20 μM) is “+50%”. Moreover, the “ROS signal above the level induced by Pγ” value in the experiment on C. albicans [3] (20 μM, 4 h) worked out at 146%.
